In assay [1] the target is T1, cytoplasmic domain of the human CSF-1R (Homo sapiens, UniProt P07333).
T1 construct: Recombinant protein corresponding to the cytoplasmic domain of the human CSF-1R; purchased Invitrogen Corporation, Carlsbad, Calif; PV3249
T1 sequence (P07333 539-972 limits assumed): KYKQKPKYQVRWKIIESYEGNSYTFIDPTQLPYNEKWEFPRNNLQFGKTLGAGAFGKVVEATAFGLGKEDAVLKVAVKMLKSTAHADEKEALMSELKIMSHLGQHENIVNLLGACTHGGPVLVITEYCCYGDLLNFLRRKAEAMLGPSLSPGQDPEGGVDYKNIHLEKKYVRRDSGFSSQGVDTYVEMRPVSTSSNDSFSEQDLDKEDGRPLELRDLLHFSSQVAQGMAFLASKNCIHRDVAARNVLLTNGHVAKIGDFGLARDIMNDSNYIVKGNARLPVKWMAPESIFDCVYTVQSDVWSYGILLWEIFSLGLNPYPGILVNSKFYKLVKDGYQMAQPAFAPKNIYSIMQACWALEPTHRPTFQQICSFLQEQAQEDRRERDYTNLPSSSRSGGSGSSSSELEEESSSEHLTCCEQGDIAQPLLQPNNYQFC
Put plainly: In vitro kinase assay for CSF-1R (AlphaScreen). Type of assay: biochemical. As to conditions: tested at about 1 μM; read-out: CSF1RK 1 percent inhibition. Here is the method:
The kinase activity of various protein tyrosine kinases can be measured by providing ATP and a suitable peptide or protein tyrosine-containing substrate, and assaying the transfer of phosphate moiety to the tyrosine residue. Recombinant protein corresponding to the cytoplasmic domain of the human CSF-1R was purchased from Invitrogen Corporation, Carlsbad, Calif. U.S.A. (#PV3249). For each assay, test compounds were serially diluted, starting at 25 μM with 3 fold dilutions, in DMSO in 384 well plates then mixed with an appropriate kinase reaction buffer consisting of 50 mM Hepes, 5 mM MgCl2, 10 mM MnCl2, 0.1% BSA, pH 7.5, 1.0 mM dithiothreitol, 0.01% Tween 80 plus 1 μM ATP. Kinase protein and an appropriate biotinylated peptide substrate at 50 nM were added to give a final volume of 20 μL, reactions were incubated for 2 hours at room temperature and stopped by the addition of 10 μL of 45 mM EDTA, 50 mM Hepes pH 7.5. Added to the stopped reaction mix was 30 μL of PT66 Alphascreen beads (Perkin Elmer, Boston, Mass., U.S.A.). The reaction was incubated overnight and read on the Envision (Perkin Elmer). Phosphorylated peptide product was measured with the AlphaScreen system (Perkin Elmer) using acceptor beads coated with anti-phosphotyrosine antibody PT66 and donor beads coated with streptavidin that emit a fluorescent signal at the 520-620 nm emission wave length if in close proximity. The concentration of each compound for 50% inhibition (IC50) was calculated by non-linear regression using XL Fit data analysis software.
CSF-1R kinase was assayed in 50 mM Hepes pH 7.0, 5 mM MgCl2, 10 mM MnCl2, 1 mM DTT, 1 mg/mL BSA, 1.0 μM ATP, and 0.05 μM biotin-GGGGRPRAATF-NH2 (SEQ ID NO:1) peptide substrate. CSF-1R kinase was added at final concentration of 4 nM.
(In Alpha technology, singlet oxygen from a donor bead excites a nearby acceptor bead.)

The target of assay [2] is T2, PDGFRb (Homo sapiens, UniProt P09619).
T2 construct: The kinase domain of PDGFRβ was assayed in 50 mM Hepes; purchased Invitrogen P3082
Put plainly: PDGFRb kinase in vitro biochemical assay (alphascreen). As to conditions: tested at about 1 μM; read-out: PDGF RK BETA percent inhibition. Here is the method: (§1) The IC50 values for the inhibition of RTKs were determined in the alphascreen format measuring the inhibition by compound of phosphate transfer to a substrate by the respective enzyme. Briefly, the respective RTK domain purchased as human recombinant protein (cKIT Upstate #14-559, PDGFRb Invitrogen #P3082) were incubated with serial dilutions of compound in the presence of substrate and ATP concentrations within 3 times the Km of the enzyme.
(§2) The kinase domain of cKIT was assayed in 50 mM Hepes, pH=7.5, 5 mM MgCl2, 10 mM MnCl2, 1 mM DTT, 0.1% BSA with 0.06 uM biotinylated peptide substrate (GGLFDDPSYVNVQNL-NH2) and 15 uM ATP (ATP KM apparent=15 uM). The kinase domain of PDGFRβ was assayed in 50 mM Hepes, pH=7.5, 20 mM MgCl2, 1 mM DTT, 0.1% BSA with 0.1 uM biotinylated peptide substrate (GGLFDDPSYVNVQNL-NH2) and 10 uM ATP (ATP KM apparent=25 uM). Reactions were incubated at room temperature for 3 to 4 hr and stopped with buffer (20 mM EDTA, 0.01% Tween-20 for both PDGFRb and cKIT). Alphascreen PY20 beads were added to the stopped cKIT reactions and PY20 Ab/Protein A Alphascreen beads were added to the PDGFRβ stopped reactions. Both reactions were incubated overnight and read on the Alphascreen reader. The concentration of compound for 50% inhibition (IC50) was calculated employing non-linear regression using XL-Fit data analysis software. As a control compound, staurosporine is run in every assay and a Z′>0.5 is required to validate results.

In assay [3] the test system is MNFS60 (murine AML cells). Description: Cell viability assay in MCSF dependent MNFS60 cells (Cell Titer Glo). Type of assay: cell-based. The note with it: Mus musculus; tested at about 1 μM; MCSF 10 ng/mL, 72 hrs; read-out: CPEC50 MNFS60MCSF percent inhibition. Here is the method:
Cell viability was assessed by Cell Titer Glo, Promega. MNFS60 (murine AML cells) were seeded in TC treated 96-well plates at a density of 5,000 cells per well in RPMI-1640, 10% FBS, and 1% Penicillin Streptomycin prior to addition of compound. Test compounds were serially diluted (3 fold) in DMSO to 500× the final concentration. For each concentration of test compound, 2 μl (500×) aliquots of compound or 100% DMSO (control) were diluted in 500 μl of culture medium that contained 2× final concentration of growth factor MCSF for 2× concentration and then diluted 1× on the cells. Final concentration of MCSF is 10 ng/mL. Cells were incubated for 72 hrs at 37° C., 5% CO2. After the incubation 100 μl Cell Titer Glo is added to each well to determine viable cells. The assay was performed according to the manufacturer's instruction (Promega Corporation, Madison, Wis. USA). Each experimental condition was performed in triplicate. Raw data was imported in Abase and EC50s calculated with XL-fit data analysis software: Relative light units of wells that contained cells without MCSF in the media and as a consequence didn't grow were defined as 100% inhibited.

For assay [4], the target named is T3, cKIT (Homo sapiens, UniProt P10721).
T3 construct: The kinase domain of cKIT was assayed in 50 mM Hepes; purchased Upstate 14-559
Description: cKIT kinase in vitro biochemical assay (alphascreen). As to conditions: tested at about 1 μM; read-out: CKIT percent inhibition. Here is the method:
as §1, §2

T3 sequence (P10721 589-937 limits assumed): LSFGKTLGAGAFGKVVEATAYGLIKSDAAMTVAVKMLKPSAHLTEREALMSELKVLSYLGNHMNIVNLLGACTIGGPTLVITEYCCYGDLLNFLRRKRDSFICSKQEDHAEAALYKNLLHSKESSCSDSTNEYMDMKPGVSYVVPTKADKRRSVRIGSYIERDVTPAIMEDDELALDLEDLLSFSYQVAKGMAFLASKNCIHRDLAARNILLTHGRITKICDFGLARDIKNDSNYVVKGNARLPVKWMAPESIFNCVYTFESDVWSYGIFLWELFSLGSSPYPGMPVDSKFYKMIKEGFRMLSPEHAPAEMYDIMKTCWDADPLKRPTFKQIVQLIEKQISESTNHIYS
T2 sequence (P09619 600-962 limits assumed): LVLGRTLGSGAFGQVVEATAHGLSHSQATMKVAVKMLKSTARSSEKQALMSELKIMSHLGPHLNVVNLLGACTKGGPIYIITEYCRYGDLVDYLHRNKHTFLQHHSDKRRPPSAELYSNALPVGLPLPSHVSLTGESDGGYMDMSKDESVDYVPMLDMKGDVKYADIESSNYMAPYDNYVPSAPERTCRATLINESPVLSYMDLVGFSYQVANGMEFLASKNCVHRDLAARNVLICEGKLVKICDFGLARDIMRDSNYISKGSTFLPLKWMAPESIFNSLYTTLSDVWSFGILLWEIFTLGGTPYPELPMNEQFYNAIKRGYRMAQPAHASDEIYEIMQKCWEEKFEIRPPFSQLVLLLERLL

The term inhibition denotes the drop in the measured response relative to a control, in per cent. Consider `Clc1ccncc1Oc1ccc2nc(NCC3CCCCC3)sc2c1` [Compound 1, 6-(4-chloropyridin-3-yloxy)-N-(cyclohexylmethyl)benzo[d]thiazol-2-amine], for which the inhibition at 1 µM in assay [1] stood at 100%; in assay [2] it was 34%; in assay [3], 22%; in assay [4] it was 66%.
For `O[C@@H]1CCCC[C@H]1Nc1nc2ccc(Oc3cnccc3Cl)cc2s1` [Compound 7, (1R,2R)-2-(6-(4-chloropyridin-3-yloxy)benzo[d]thiazol-2-ylamino) cyclohexanol], the inhibition at 1 µM stood at 100% in assay [1], 11% in assay [2], 42% in assay [3] and 25% in assay [4].
For the compound `Nc1cc(Oc2ccc3nc(NCC4CCCCC4)sc3c2)ncn1` [Compound 8, 6-(6-aminopyrimidin-4-yloxy)-N-(cyclohexylmethyl) benzo[d]thiazol-2-amine], the inhibition at 1 µM in assay [1] is 100%; in assay [2], 46%; in assay [3], 30%; in assay [4], 75%.
Consider `N#Cc1ccc(Oc2ccc3nc(N[C@@H]4CCCC[C@H]4O)sc3c2)cn1` [Compound 88, 5-(2-((1R,2R)-2-hydroxycyclohexylamino)benzo[d]thiazol-6-yloxy)picolinonitrile], for which the figures for the inhibition at 1 µM in assay [1], in assay [2] and in assay [4] were 32%, 0% and 15%, respectively.
In the same order, the values of `Nc1ccc(Oc2ccc3nc(NCC4CCCCC4)sc3c2)nn1` [Compound 89, 6-(6-aminopyridazin-3-yloxy)-N-(cyclohexylmethyl)benzo[d]thiazol-2-amine] are 75%, 9% and 46%.
For the compound `Nc1ccc(Oc2ccc3nc(N[C@@H]4CCCC[C@H]4O)sc3c2)nn1` [Compound 90, (1R,2R)-2-(6-(6-aminopyridazin-3-yloxy)benzo[d]thiazol-2-ylamino)cyclohexanol], the inhibition at 1 µM stood at 28% in assay [1], 87% in assay [2] and 33% in assay [4].
Regarding `Cn1nccc1-c1cncc(Oc2ccc3nc(N[C@@H]4CCCC[C@H]4O)sc3c2)n1` [Compound 91, (1R,2R)-2-(6-(6-(1-methyl-1H-pyrazol-5-yl)pyrazin-2-yloxy)benzo[d]thiazol-2-ylamino) cyclohexanol], the inhibition at 1 µM is 95% in assay [1], 14% in assay [2] and 21% in assay [4].
In the same order, the values of `O[C@@H]1CCCC[C@H]1Nc1nc2ccc(Oc3cnc(Cl)c(Br)c3)cc2s1` [Compound 99, (1R,2R)-2-(6-(5-bromo-6-chloropyridin-3-yloxy)benzo[d]thiazol-2-ylamino)cyclohexanol] are 83%, 21% and 27%.
In the same order, the values of `C[C@H](Nc1nc2ccc(Oc3ccc(N)nc3)cc2s1)C1CCCCC1` [Compound 100, (S)-6-(6-aminopyridin-3-yloxy)-N-(1-cyclohexylethyl)benzo[d]thiazol-2-amine] are 100%, 31% and 90%.
On to `Cn1cc(-c2cc(Oc3ccc4nc(N[C@@H]5CCCC[C@H]5O)sc4c3)cnc2Cl)cn1` [Compound 102, (1R,2R)-2-(6-(6-chloro-5-(1-methyl-1H-pyrazol-4-yl)pyridin-3-yloxy)benzo[d]thiazol-2-ylamino)cyclohexanol], for which the inhibition at 1 µM in assay [1] stood at 86%; in assay [2] it was 7%; in assay [4] it was 11%.
In the case of `Nc1ccc(-c2cc(Oc3ccc4nc(N[C@@H]5CCCC[C@H]5O)sc4c3)cnc2Cl)cn1` [Compound 104, (1R,2R)-2-(6-(6′-amino-2-chloro-3,3′-bipyridin-5-yloxy)benzo[d]thiazol-2-ylamino)cyclohexanol], the inhibition at 1 µM in assay [1] turned out to be 86%; in assay [2], 15%; in assay [4] it was 15%.
With `O[C@@H]1CCCC[C@H]1Nc1nc2ccc(Oc3cnc(Cl)c(-c4cccnc4)c3)cc2s1` [Compound 105, (1R,2R)-2-(6-(2-chloro-3,3′-bipyridin-5-yloxy)benzo[d]thiazol-2-ylamino) cyclohexanol], the results for the inhibition at 1 µM in assay [1], in assay [2] and in assay [4] were 43%, 9% and 9%, respectively.
`Cn1cc(-c2cc(Oc3ccc4nc(N[C@@H]5CCCC[C@H]5O)sc4c3)cnc2-c2cnn(C)c2)cn1` [Compound 106, (1R,2R)-2-(6-(5,6-bis(1-methyl-1H-pyrazol-4-yl)pyridin-3-yloxy)benzo[d]thiazol-2-ylamino) cyclohexanol]: the inhibition at 1 µM was 81% in assay [1], 18% in assay [2] and 13% in assay [4].
On to `Nc1ccc(-c2cc(Oc3ccc4nc(N[C@@H]5CCCC[C@H]5O)sc4c3)cnc2-c2ccc(N)nc2)cn1` [Compound 108, (1R,2R)-2-(6-(5,6-bis(6-amino-pyridin-3-yl)pyridin-3-yloxy)benzo[d]thiazol-2-ylamino)cyclohexanol], for which the inhibition at 1 µM was found to be 93% in assay [1], 23% in assay [2] and 10% in assay [4].
For the compound `O[C@@H]1CCCC[C@H]1Nc1nc2ccc(Oc3cnc(-c4cccnc4)c(-c4cccnc4)c3)cc2s1` [Compound 109, (1R,2R)-2-(6-(5,6-bis(pyridin-3-yl)pyridin-3-yloxy)benzo[d]thiazol-2-ylamino)cyclohexanol], the inhibition at 1 µM in assay [1] is 48%; in assay [2], 16%; in assay [4] it was 11%.

The record behind these values is patent publication US8293769B2, “CSF-1R inhibitors, compositions, and methods of use” (Novartis AG, priority 2008, dated 2012).
